Measurements taken from ChEMBL document CHEMBL3272258, “Quantitative structure-activity relationships. 1. The modified Free-Wilson approach” (J Med Chem, 1976).

Key:
[1] = test system: Trichophyton mentagrophytes; experiment: Antifungal activity against Trichophyton mentagrophytes assessed as growth inhibition measured for 14 days by tube dilution method; format: functional
[2] = n-octanol-water partition coefficient, log P of the compound; format: physicochemical
Rattus norvegicus [3] = species on record: Rattus norvegicus; experiment: Antagonist activity at rat adrenergic receptor assessed as inhibition of adrenaline-induced response
Rattus norvegicus [4] = species on record: Rattus norvegicus; experiment: Binding affinity to rat thyroid hormone receptor

Compound	log(1/C) [1]	logP [2]	log(1/C) (Rattus norvegicus [3])	log(activity) (Rattus norvegicus [4])
Cc1cc(Cl)ccc1OCC(C)O (configuration not stated)	3.3	2.84	–	–
CN(C)CC(Br)c1ccc(F)c(Br)c1 (configuration not stated)	–	–	8.57	–
OCC(O)COc1ccc(Cl)cc1 (configuration not stated)	2.31	1.4	–	–
OCCCOc1ccc(Cl)cc1	3.07	2.36	–	–
Cc1cc(OCC(C)O)cc(C)c1Cl (configuration not stated)	3.68	3.18	–	–
Cc1cc(OCC(C)O)ccc1Cl (configuration not stated)	3.3	2.67	–	–
Cc1cc(Cl)ccc1OCC(O)CO (configuration not stated)	2.33	2.08	–	–
Cc1cc(C(Br)CN(C)C)ccc1Br (configuration not stated)	–	–	9.22	–
Cc1ccccc1OCCCO	2.79	2.34	–	–
Cc1ccc(C(Br)CN(C)C)cc1Br (configuration not stated)	–	–	9.52	–
Cc1cccc(Cl)c1OCCCO	2.78	2.93	–	–
CN(C)CC(Br)c1ccc(I)cc1 (configuration not stated)	–	–	9.25	–
CC(O)COc1ccc(Cl)cc1 (configuration not stated)	2.81	2.16	–	–
CN(C)CC(Br)c1ccc(Br)c(Cl)c1 (configuration not stated)	–	–	9	–
Cc1ccccc1OCC(O)CO (configuration not stated) [MEPHENESIN]	2.26	1.38	–	–
CN(C)CC(Br)c1ccc(F)c(Cl)c1 (configuration not stated)	–	–	8.19	–
Cc1cc(C(Br)CN(C)C)ccc1F (configuration not stated)	–	–	8.82	–
NC(Cc1cc(I)c(Oc2cc(Cl)c(O)c(Cl)c2)c(I)c1)C(=O)O (racemic)	–	–	–	-0.05
Cc1ccc(C(Br)CN(C)C)cc1 (configuration not stated)	–	–	9.3	–
CC(O)COc1ccccc1Cl (configuration not stated)	2.84	2.05	–	–
NC(Cc1cc(I)c(Oc2ccc(O)c(Br)c2)c(I)c1)C(=O)O (racemic)	–	–	–	2.3
Cc1cc(Cl)c(OCCCO)c(Cl)c1	3.67	3.36	–	–

Compound	log(1/C) [1]	logP [2]	log(1/C) (Rattus norvegicus [3])	log(activity) (Rattus norvegicus [4])
Cc1cc(Cl)cc(C)c1OCC(O)CO (configuration not stated)	2.76	2.76	–	–
Cc1cc(Cl)cc(C)c1OCCCO	3.51	3.72	–	–
CN(C)CC(Br)c1ccc(Br)c(Br)c1 (configuration not stated)	–	–	9.35	–
CN(C)CC(Br)c1ccc(Cl)cc1 (configuration not stated)	–	–	8.68	–
NC(Cc1cc(I)c(Oc2ccc(O)cc2)c(I)c1)C(=O)O (racemic)	–	–	–	-0.43
OCC(O)COc1c(Cl)cccc1Cl (configuration not stated)	2.37	1.88	–	–
Cc1cc(Cl)c(OCC(C)O)c(Cl)c1 (configuration not stated)	3.47	3.16	–	–
NC(Cc1cc(I)c(Oc2cc(F)c(O)c(I)c2)c(I)c1)C(=O)O (racemic)	–	–	–	1.45
NC(Cc1cc(Br)c(Oc2ccc(O)c(I)c2)c(Br)c1)C(=O)O (racemic)	–	–	–	2.11
CN(C)CC(Br)c1ccccc1 (configuration not stated)	–	–	7.46	–
Cc1ccccc1OCC(C)O (configuration not stated)	2.46	2.14	–	–
Cc1cc(Cl)c(OCC(O)CO)c(Cl)c1 (configuration not stated)	3.1	2.4	–	–
CN(C)CC(Br)c1cccc(F)c1 (configuration not stated)	–	–	7.52	–
Cc1cccc(Cl)c1OCC(O)CO (configuration not stated)	2.33	1.97	–	–
NC(Cc1cc(I)c(Oc2cc(I)c(O)c(I)c2)c(I)c1)C(=O)O (racemic)	–	–	–	2
NC(Cc1cc(Cl)c(Oc2cc(I)c(O)c(I)c2)c(Cl)c1)C(=O)O (racemic)	–	–	–	-1
NC(Cc1cc(Br)c(Oc2ccc(O)c(Br)c2)c(Br)c1)C(=O)O (racemic)	–	–	–	1.64
Cc1cc(C(Br)CN(C)C)ccc1Cl (configuration not stated)	–	–	8.96	–
CN(C)CC(Br)c1ccc(Cl)c(Br)c1 (configuration not stated)	–	–	8.92	–
Cc1cc(Cl)cc(C)c1OCC(C)O (configuration not stated)	3.51	3.52	–	–
CN(C)CC(Br)c1cccc(I)c1 (configuration not stated)	–	–	8.4	–
NC(Cc1cc(I)c(Oc2ccc(O)c(I)c2)c(I)c1)C(=O)O (racemic)	–	–	–	2.74

Compound	log(1/C) [1]	logP [2]	log(1/C) (Rattus norvegicus [3])	log(activity) (Rattus norvegicus [4])
NC(Cc1cc(Br)c(Oc2cc(I)c(O)c(I)c2)c(Br)c1)C(=O)O (racemic)	–	–	–	1.1
Cc1cc(OCC(O)CO)ccc1Cl (configuration not stated)	2.9	1.91	–	–
CC(O)COc1ccc(Cl)cc1Cl (configuration not stated)	3.35	2.75	–	–
OCC(O)COc1ccc(Cl)cc1Cl (configuration not stated)	2.61	1.99	–	–
NC(Cc1cc(Br)c(Oc2cc(Br)c(O)c(Br)c2)c(Br)c1)C(=O)O (racemic)	–	–	–	-0.29
NC(Cc1cc(I)c(Oc2ccc(O)c(F)c2)c(I)c1)C(=O)O (racemic)	–	–	–	0.38
CC(O)COc1c(Cl)cccc1Cl (configuration not stated)	3.04	2.64	–	–
Cc1ccc(C(Br)CN(C)C)cc1C (configuration not stated)	–	–	9.3	–
Cc1cc(OCCCO)cc(C)c1Cl	3.93	3.38	–	–
CN(C)CC(Br)c1ccc(Br)cc1 (configuration not stated)	–	–	8.89	–
Cc1cccc(C(Br)CN(C)C)c1 (configuration not stated)	–	–	8.46	–
Cc1cc(OCC(O)CO)cc(C)c1Cl (configuration not stated)	3.24	2.42	–	–
CN(C)CC(Br)c1cccc(Br)c1 (configuration not stated)	–	–	8.3	–
OCC(O)COc1ccccc1Cl (configuration not stated)	2.31	1.29	–	–
CN(C)CC(Br)c1ccc(Cl)c(Cl)c1 (configuration not stated)	–	–	8.89	–
NC(Cc1cc(I)c(Oc2cc(Br)c(O)c(Br)c2)c(I)c1)C(=O)O (racemic)	–	–	–	1
CN(C)CC(Br)c1ccc(F)cc1 (configuration not stated)	–	–	8.16	–
NC(Cc1cc(I)c(Oc2cc(F)c(O)c(F)c2)c(I)c1)C(=O)O (racemic)	–	–	–	0.26
Cc1cccc(Cl)c1OCC(C)O (configuration not stated)	2.7	2.73	–	–
CN(C)CC(Br)c1cccc(Cl)c1 (configuration not stated)	–	–	8.16	–
